Like-named read-outs stand apart in the source and are kept apart here. Marks after values point to notes of the source that are not given here. One block for each molecule: values may come before it.
What was measured:
[1] = Transfer of organic compounds between two MeCN phases through an FC-72 phase (U-tube); format: physicochemical; settings: two MeCN phases through FC-72, 23° C., 3 days
[2] = between FC-72 and MeOH
[3] = Transfer of 2a between two organic phases through an FC-72 phase (U-tube); format: physicochemical; settings: FC-72 stirred 23° C., 3 days
Experimental: 2-(2-Naphtylethanol) 2a (10 mg) was dissolved in an organic solvent (1 ml) and the mixture was put into one side (side A) of U-tube 10 of FIG. 1, in which FC-72 (10 ml) was placed. The other organic solvent was put into the other side (side B) of U-tube 10 and the center phase (FC-72) was stirred (via, for example, magnetic stirring element 130) at 23° C. for 3 days without mixing the interfaces between the organic and FC-72 layers. The weights of each organic phase were measured after evaporation.

[4] = Selective transport of a fluorous-tagged component of a mixture through FC-72 between two acetonitrile phases; format: physicochemical
[5] = U-tube transport of guest molecules from aqueous S-phase through FC-72 F-phase to basic aqueous P-phase, with or without fluorous transport agent 3b; format: physicochemical; settings: transport agent 3b about 1 mM in FC-72; S-phase water, P-phase pH 11.5 phosphate buffer; ambient temperature
Experimental: In an illustrative example, several transport experiments were carried out with a variety of guest molecules and fluorous transport agent 3b. The F-phase included transport agent 3b, at about 1 mM in the fluorous solvent FC-72. This F-phase was contacted in a U-tube with a first phase containing various organic compounds in water and a second aqueous phase containing hydroxide ion (pH 11.5 phosphate buffer). After various periods of time at ambient temperature, a portion of the more basic, P-phase was removed and subjected to quantitative analysis by UV absorbance spectrophotometry. The measured absorbances were converted to the concentration of each organic compound by the use of a calibration curve. The organic solutes tested were phenobarbital, secobarbital, mephobarbital, thiopental, 2-ethyl, 2-phenylmalonamide, and p-toluenesulfonate. […] The amount of each compound transported (as a fraction of the amount in the S-phase) is plotted versus time. The data points represent behavior of mephobarbital (represented by solid squares), secobarbital (represented by open squares), thiopental (represented by triangles), phenobarbital (represented by diamonds), malonamide and p-toluenesulfonate (both represented by open circles). Each of the barbiturates was transported through the fluorous phase in the presence of transport agent 3b. […]

- ratio (A/B) [1]: 94/6
Molecule: CC(=O)Oc1ccc2ccccc2c1 [2-naphthyl acetate]

- ratio (A/B) [1]: 96/4
Molecule: CC(O)c1ccc2ccccc2c1 (stereo not shown) [1-(2-naphthyl)ethanol]

Molecule: CC(=O)Cc1ccc2ccccc2c1 [2-naphthylacetone]
- ratio (A/B) [1]: 91/9

Molecule: CC(C)[Si](CCC(F)(F)C(F)(F)C(F)(F)C(F)(F)C(F)(F)C(F)(F)F)(OCCc1ccc2ccccc2c1)C(C)C [1c, Diisopropyl-1H,1H,2H,2H-perfluorooctanylsilyl 2-naphthylethyl ether]
- Kp (partition coefficient) [2]: 0.39

- ratio (A/B) [1]: 96/4
Molecule: CCCCCCCCCCCCO [dodecanol]

- ratio (A/B) [1]: 99/1
Molecule: N#CCc1ccc2ccccc2c1 [2-naphthylacetonitrile]

- ratio (A/B) [1]: 82/18
Molecule: CC(N)c1cccc2ccccc12 (stereo not shown) [1-(1-naphthyl)ethylamine]

- ratio (A/B) [1]: 99/1
- ratio of 2a (A/B) ([3]; side A MeCN, side B MeCN): 99/1
- ratio of 2a (A/B) ([3]; side A MeCN, side B MeOH): >99/1
- ratio of 2a (A/B) ([3]; side A MeCN, side B THF): >99/1
- ratio of 2a (A/B) ([3]; side A MeOH, side B MeCN): 99/1
- ratio of 2a (A/B) ([3]; side A MeOH, side B MeOH): 99/1
- ratio of 2a (A/B) ([3]; side A MeOH, side B THF): 96/4
- ratio of 2a (A/B) ([3]; side A THF, side B MeOH): 97/3
- ratio of 2a (A/B) ([3]; side A THF, side B THF): 90/10
- presence in P-phase by TLC or 1H NMR ([4]; after 1d, 1/1 mixture with 1g in acetonitrile S-phase): not detected
Molecule: OCCc1ccc2ccccc2c1 [2a, 2-(2-naphthyl)ethanol]

Molecule: CC(C)[Si](CCC(F)(F)C(F)(F)C(F)(F)C(F)(F)C(F)(F)C(F)(F)C(F)(F)C(F)(F)F)(O[C@@H](C)c1ccc2ccccc2c1)C(C)C [1f, diisopropyl-1H,1H,2H,2H-perfluorodecanylsilyl (S)-(−)-1-(2-naphthyl)ethyl ether]
- Kp (partition coefficient) [2]: 1.5

- ratio (A/B) [1]: >99/1
Molecule: O=C(O)Cc1ccc2ccccc2c1 [2-naphthylacetic acid]

Molecule: CC(C)[Si](CCC(F)(F)C(F)(F)C(F)(F)C(F)(F)C(F)(F)C(F)(F)C(F)(F)C(F)(F)F)(OCCc1ccc2ccccc2c1)C(C)C [1a, diisopropyl-1H,1H,2H,2H-perfluorodecanylsilyl 2-naphthylethyl ether]
- partition coefficient (FC-72 / CH2Cl2, 23 C): 0.14
- partition coefficient (FC-72 / DMF, 23 C): 0.38
- partition coefficient (FC-72 / EtOH, 23 C): 0.91
- partition coefficient (FC-72 / MeCN, 23 C): 0.74
- partition coefficient (FC-72 / MeOH, 23 C): 0.92
- partition coefficient (FC-72 / THF, 23 C): 0.04
- Kp (partition coefficient) [2]: 0.92

Molecule: CC(C)[Si](CCC(F)(F)C(F)(F)C(F)(F)C(F)(F)C(F)(F)C(F)(F)C(F)(F)C(F)(F)F)(OCC=Cc1ccccc1)C(C)C [1g, (3,3,4,4,5,5,5,6,6,7,7,8,8,9,9,10,10,10,10-heptadecafluorodecyl)-diisopropyl(3-phenyl-allyloxy)silane]
- Kp (partition coefficient) [2]: 1.3
- Mass of the residue (P-phase) ([4]; P-phase removed at 3 h, 1/1 mixture of 2a and 1g in acetonitrile S-phase): 4.5 mg
- Mass of the residue (P-phase) ([4]; P-phase removed at 7 h, fresh acetonitrile after each removal): 6 mg
- Mass of the residue (P-phase) ([4]; P-phase removed at 24 h, fresh acetonitrile after each removal): 7 mg

Molecule: CCc1ccc2ccccc2c1 [2-ethylnaphthalene]
- ratio (A/B) [1]: 66/33^a

Molecule: N#CCC#N [malononitrile]
- ratio (A/B) [1]: >99/1

Molecule: p-toluenesulfonate
- transport through the fluorous phase to the P-phase [5]: no transport

- ratio (A/B) [1]: 99/1
Molecule: OCC=Cc1ccccc1 [cinnamyl alcohol]

From US6734318B2, “Fluorous triphase and other multiphase systems” (University of Pittsburgh, priority 2001, dated 2004)
